In brackets after ≈: the same amount, converted by molar mass. Several values for one entry are separate records, joined by “and”; a condition that tells them apart may be missing. Identical values can stand only once.
Columns and labels:
[1] = tested on: Pseudomonas aeruginosa ATTC 27853; test: MIC against P. aeruginosa ATTC 27853 in LB broth; type: cell-based; details: ATTC27853, 16 h
Method: Overnight cultures were diluted 1:150 in LB broth and added to a 96-well plate. Antibiotics were serially diluted 1:2 and added to columns of the 96-well plate and grown at 37 °C with continuous shaking. Cell growth was measured using optical density at 600 nm (OD600). MIC assays were performed in either BioTek Synergy HT or Tecan InfiniteM200 Pro microplate readers.

[2] = tested on: Staphylococcus aureus NRS384; test: MIC (WuXi, Mueller–Hinton broth) against S. aureus NRS384; type: cell-based
Method: Bacterial colonies (4–8) of strains of interest were vortexed in saline and adjusted to an OD600 of 0.2. Strains were diluted 1:200 into CAMHB media in 96-well plates. Antibiotics were serially diluted 1:3 in DMSO, and 1 μl of each dilution was added to bacteria. The plates were incubated for 18–20 h at 37 °C before observation.

[3] = tested on: WI-38 (embryonic lung tissue); test: Mammalian cell cytotoxicity, WI-38; type: cell-based, human
[4] = Pharmacokinetic analysis after single oral dose; type: in vivo, mouse
Method: For pharmacokinetics determination, care and handling of male CD-1 mice approximately 6–8 weeks old conformed to institutional animal care and use policies as carried out at Pharmaron.
Pharmacokinetic properties were determined after a single dose of 200 mg kg^−1 fluorofolin given orally (PO). Plasma samples were taken from three mice at times 0.083, 0.25, 0.5, 1, 2, 4, 8 and 24 h, and quantitative analysis was performed using LC–MS/MS. Half-life was determined from plasma concentration after fluorofolin levels reached pseudo-equilibrium (4 h for mouse 1 and 2, and 2 h for mouse 3). Pharmacokinetic values were estimated using a non-compartmental model generated from WinNonlin 6.1. Pharmacokinetic analysis was carried out by Pharmaron.

E. coli MG1655 = test: Growth of E. coli MG1655 in TMI-supplemented media with fluorofolin; type: cell-based, Escherichia coli; details: for OD600 of E. coli MG1655: Fluorofolin + TMI
[5] = CD-1 mice, 200 mg/kg PO, mean of three mice
[6] = male, mouse, plasma, CD-1 mice, 200 mg/kg PO, mean of three mice

Nc1nc(N)c2c(ccc3c2ccn3Cc2ccnc(F)c2)n1 [fluorofolin]
MIC [1]: 25 µg/mL
MIC [2]: 0.03 µg/mL (≈ 0.0973 µM)
IC50 ([3]; Homo sapiens, WI-38, 72 h, CyQUANT, read-out: IC50 Fluorofolin): 14.4 µg/mL (≈ 46.8 µM)
increase in IC50 compared with IRS-16 ([3]; WI-38 cells): 58.5 fold
plasma concentration ([4]; 0.083 h after 200 mg kg^−1 PO, one value per mouse): 1290 ng/mL and 1470 ng/mL
plasma concentration ([4]; 0.25 h after 200 mg kg^−1 PO, one value per mouse): 2880 ng/mL and 2500 ng/mL
plasma concentration ([4]; 0.5 h after 200 mg kg^−1 PO, one value per mouse): 3070 ng/mL and 2970 ng/mL
plasma concentration ([4]; 1 h after 200 mg kg^−1 PO, one value per mouse): 3980 ng/mL and 3260 ng/mL
plasma concentration ([4]; 2 h after 200 mg kg^−1 PO, one value per mouse): 4080 ng/mL and 3760 ng/mL
plasma concentration ([4]; 4 h after 200 mg kg^−1 PO, one value per mouse): 4460 ng/mL and 3060 ng/mL
plasma concentration ([4]; 8 h after 200 mg kg^−1 PO, one value per mouse): 2580 ng/mL and 1400 ng/mL
plasma concentration ([4]; 24 h after 200 mg kg^−1 PO, one value per mouse): 430 ng/mL and 287 ng/mL and 1740 ng/mL
AUC_% Extrap_obs [4, 5]: 23.3970%
AUC_last/D [4, 5]: 231.6700 h*ng/mL per mg/kg
T1/2 ([4]; CD-1 mice, 200 mg/kg PO, mean of three mice, 200 mg/kg): 12.1050 h
concentration at 0.083 h ([4]; male, CD-1, mouse, plasma, po, 200 mg kg^−1, 0.083 h after 200 mg kg^−1 PO, one value per mouse): 880 ng/mL
concentration at 0.25 h ([4]; male, CD-1, mouse, plasma, po, 200 mg kg^−1, 0.25 h after 200 mg kg^−1 PO, one value per mouse): 2220 ng/mL
concentration at 0.5 h ([4]; male, CD-1, mouse, plasma, po, 200 mg kg^−1, 0.5 h after 200 mg kg^−1 PO, one value per mouse): 2810 ng/mL
concentration at 1 h ([4]; male, CD-1, mouse, plasma, po, 200 mg kg^−1, 1 h after 200 mg kg^−1 PO, one value per mouse): 2930 ng/mL
concentration at 2 h ([4]; male, CD-1, mouse, plasma, po, 200 mg kg^−1, 2 h after 200 mg kg^−1 PO, one value per mouse): 3640 ng/mL
concentration at 4 h ([4]; male, CD-1, mouse, plasma, po, 200 mg kg^−1, 4 h after 200 mg kg^−1 PO, one value per mouse): 3460 ng/mL
concentration at 8 h ([4]; male, CD-1, mouse, plasma, po, 200 mg kg^−1, 8 h after 200 mg kg^−1 PO, one value per mouse): 1640 ng/mL
half-life ([4]; male, CD-1, mouse, plasma, po, 200 mg/kg, CD-1 mice, 200 mg/kg PO, mean of three mice): 12.1 h
AUC(0-inf) [4, 6]: 68800 ng·h/mL
AUC(0-t) [4, 6]: 46300 ng·h/mL
Cmax [4, 6]: 3950 ng/mL
Tmax [4, 6]: 2.67 h
MRT inf ([4]; male, mouse, plasma, CD-1 mice, 200 mg/kg PO, mean of three mice, read-out: MRT_Inf_obs): 18.2 h
peak concentration ([4]; mice, oral administration): 4.0 µg/mL
rescue of growth inhibition by TMI supplementation (E. coli MG1655; E. coli MG1655, 0.3 mM TMI, fluorofolin 2× MIC): could also be rescued with TMI supplementation
OD600 of E. coli MG1655 (E. coli MG1655; Time 10 min): 0.007
OD600 of E. coli MG1655 (E. coli MG1655; Time 70 min): 0.0105
OD600 of E. coli MG1655 (E. coli MG1655; Time 80 min): 0.012
OD600 of E. coli MG1655 (E. coli MG1655; Time 90 min): 0.0135
OD600 of E. coli MG1655 (E. coli MG1655; Time 100 min): 0.015
OD600 of E. coli MG1655 (E. coli MG1655; Time 110 min): 0.0175
OD600 of E. coli MG1655 (E. coli MG1655; Time 120 min): 0.0195
OD600 of E. coli MG1655 (E. coli MG1655; Time 130 min): 0.0225
OD600 of E. coli MG1655 (E. coli MG1655; Time 140 min): 0.025
OD600 of E. coli MG1655 (E. coli MG1655; Time 150 min): 0.028
OD600 of E. coli MG1655 (E. coli MG1655; Time 160 min): 0.0305
OD600 of E. coli MG1655 (E. coli MG1655; Time 170 min): 0.0345
OD600 of E. coli MG1655 (E. coli MG1655; Time 180 min): 0.038
OD600 of E. coli MG1655 (E. coli MG1655; Time 190 min): 0.042
OD600 of E. coli MG1655 (E. coli MG1655; Time 200 min): 0.0465
OD600 of E. coli MG1655 (E. coli MG1655; Time 210 min): 0.052
OD600 of E. coli MG1655 (E. coli MG1655; Time 220 min): 0.0575
OD600 of E. coli MG1655 (E. coli MG1655; Time 230 min): 0.0625
OD600 of E. coli MG1655 (E. coli MG1655; Time 240 min): 0.068
OD600 of E. coli MG1655 (E. coli MG1655; Time 250 min): 0.0745
OD600 of E. coli MG1655 (E. coli MG1655; Time 260 min): 0.0815
OD600 of E. coli MG1655 (E. coli MG1655; Time 270 min): 0.0875
OD600 of E. coli MG1655 (E. coli MG1655; Time 280 min): 0.094
OD600 of E. coli MG1655 (E. coli MG1655; Time 290 min): 0.1
OD600 of E. coli MG1655 (E. coli MG1655; Time 300 min): 0.105
OD600 of E. coli MG1655 (E. coli MG1655; Time 310 min): 0.1105
OD600 of E. coli MG1655 (E. coli MG1655; Time 320 min): 0.1155
OD600 of E. coli MG1655 (E. coli MG1655; Time 330 min): 0.1215
OD600 of E. coli MG1655 (E. coli MG1655; Time 340 min): 0.1265
OD600 of E. coli MG1655 (E. coli MG1655; Time 350 min): 0.132
OD600 of E. coli MG1655 (E. coli MG1655; Time 360 min): 0.136
OD600 of E. coli MG1655 (E. coli MG1655; Time 370 min): 0.14
OD600 of E. coli MG1655 (E. coli MG1655; Time 380 min): 0.1435
OD600 of E. coli MG1655 (E. coli MG1655; Time 390 min): 0.147
OD600 of E. coli MG1655 (E. coli MG1655; Time 400 min): 0.151
